Broadly, the EC50 is the midpoint of the concentration-response curve. The term IC50 denotes the midpoint of a concentration-inhibition curve.

Calls of active or inactive are those of the source.

Data on three compounds can be found in ChEMBL document CHEMBL1201862, “PubChem BioAssay data set” (2004).

In experiment [1] the target is T1, Zinc finger protein mex-5 (Caenorhabditis elegans, UniProt Q9XUB2).
T1 sequence (Q9XUB2 whole entry): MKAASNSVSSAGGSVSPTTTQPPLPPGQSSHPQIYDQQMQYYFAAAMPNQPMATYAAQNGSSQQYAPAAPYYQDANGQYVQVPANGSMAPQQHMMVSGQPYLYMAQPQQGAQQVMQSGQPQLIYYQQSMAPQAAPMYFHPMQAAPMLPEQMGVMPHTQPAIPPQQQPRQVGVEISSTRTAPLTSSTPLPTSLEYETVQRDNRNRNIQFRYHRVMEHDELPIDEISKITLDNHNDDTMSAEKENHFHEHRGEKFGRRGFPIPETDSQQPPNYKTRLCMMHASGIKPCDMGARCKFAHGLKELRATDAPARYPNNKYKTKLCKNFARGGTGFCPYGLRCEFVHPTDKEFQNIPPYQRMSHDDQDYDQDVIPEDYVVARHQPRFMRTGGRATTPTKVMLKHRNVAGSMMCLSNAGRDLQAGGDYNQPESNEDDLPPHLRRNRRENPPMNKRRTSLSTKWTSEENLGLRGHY
The experiment in a line: MEX-5/TCR-2 RNA interaction inhibitors, dose response, biochemical, C. elegans, fluorescence polarization (AID 1960). (In fluorescence polarisation assays a small probe gives low polarisation when free and higher when bound to something large.)

For experiment [2], the target named is T2, Sentrin-specific protease 7 (Homo sapiens, UniProt Q9BQF6).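 Further: Luminescence-based dose-response confirmation of ultra-high-throughput screening hits, measuring inhibition of SENP7.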
T2 sequence (Q9BQF6 whole entry): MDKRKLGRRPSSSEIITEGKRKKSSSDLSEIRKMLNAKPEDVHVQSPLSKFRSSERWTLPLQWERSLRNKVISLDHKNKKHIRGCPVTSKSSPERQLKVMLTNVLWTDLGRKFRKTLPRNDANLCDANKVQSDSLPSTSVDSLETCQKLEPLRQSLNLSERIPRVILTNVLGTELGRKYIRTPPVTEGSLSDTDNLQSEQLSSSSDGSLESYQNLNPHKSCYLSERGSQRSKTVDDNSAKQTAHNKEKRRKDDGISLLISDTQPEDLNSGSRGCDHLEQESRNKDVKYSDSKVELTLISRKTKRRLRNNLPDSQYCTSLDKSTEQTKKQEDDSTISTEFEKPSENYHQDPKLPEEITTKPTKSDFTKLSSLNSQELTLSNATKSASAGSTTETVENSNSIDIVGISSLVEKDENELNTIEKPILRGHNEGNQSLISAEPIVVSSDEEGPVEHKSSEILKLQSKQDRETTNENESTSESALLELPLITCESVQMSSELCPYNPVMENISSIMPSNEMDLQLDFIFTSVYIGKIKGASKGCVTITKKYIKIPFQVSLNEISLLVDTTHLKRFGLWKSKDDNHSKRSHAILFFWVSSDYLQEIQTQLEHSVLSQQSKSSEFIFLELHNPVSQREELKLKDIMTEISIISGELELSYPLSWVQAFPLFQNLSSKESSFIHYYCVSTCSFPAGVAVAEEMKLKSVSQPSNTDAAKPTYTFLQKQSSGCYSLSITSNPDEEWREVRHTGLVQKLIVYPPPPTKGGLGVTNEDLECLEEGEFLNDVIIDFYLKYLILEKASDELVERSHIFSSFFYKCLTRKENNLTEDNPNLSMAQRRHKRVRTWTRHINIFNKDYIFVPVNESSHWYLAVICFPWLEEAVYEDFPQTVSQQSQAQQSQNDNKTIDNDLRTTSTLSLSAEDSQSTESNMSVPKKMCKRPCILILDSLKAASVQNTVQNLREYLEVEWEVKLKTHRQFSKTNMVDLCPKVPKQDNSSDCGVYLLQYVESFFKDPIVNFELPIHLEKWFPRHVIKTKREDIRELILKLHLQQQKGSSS
It counts as functional.

Experiment [3] concerns the target T3, Sentrin-specific protease 6 (Homo sapiens, UniProt Q9GZR1).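 Further: Luminescence-based dose-response confirmatory assay of SENP6 inhibition, following up an ultra-high-throughput screen.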
T3 sequence (Q9GZR1 whole entry): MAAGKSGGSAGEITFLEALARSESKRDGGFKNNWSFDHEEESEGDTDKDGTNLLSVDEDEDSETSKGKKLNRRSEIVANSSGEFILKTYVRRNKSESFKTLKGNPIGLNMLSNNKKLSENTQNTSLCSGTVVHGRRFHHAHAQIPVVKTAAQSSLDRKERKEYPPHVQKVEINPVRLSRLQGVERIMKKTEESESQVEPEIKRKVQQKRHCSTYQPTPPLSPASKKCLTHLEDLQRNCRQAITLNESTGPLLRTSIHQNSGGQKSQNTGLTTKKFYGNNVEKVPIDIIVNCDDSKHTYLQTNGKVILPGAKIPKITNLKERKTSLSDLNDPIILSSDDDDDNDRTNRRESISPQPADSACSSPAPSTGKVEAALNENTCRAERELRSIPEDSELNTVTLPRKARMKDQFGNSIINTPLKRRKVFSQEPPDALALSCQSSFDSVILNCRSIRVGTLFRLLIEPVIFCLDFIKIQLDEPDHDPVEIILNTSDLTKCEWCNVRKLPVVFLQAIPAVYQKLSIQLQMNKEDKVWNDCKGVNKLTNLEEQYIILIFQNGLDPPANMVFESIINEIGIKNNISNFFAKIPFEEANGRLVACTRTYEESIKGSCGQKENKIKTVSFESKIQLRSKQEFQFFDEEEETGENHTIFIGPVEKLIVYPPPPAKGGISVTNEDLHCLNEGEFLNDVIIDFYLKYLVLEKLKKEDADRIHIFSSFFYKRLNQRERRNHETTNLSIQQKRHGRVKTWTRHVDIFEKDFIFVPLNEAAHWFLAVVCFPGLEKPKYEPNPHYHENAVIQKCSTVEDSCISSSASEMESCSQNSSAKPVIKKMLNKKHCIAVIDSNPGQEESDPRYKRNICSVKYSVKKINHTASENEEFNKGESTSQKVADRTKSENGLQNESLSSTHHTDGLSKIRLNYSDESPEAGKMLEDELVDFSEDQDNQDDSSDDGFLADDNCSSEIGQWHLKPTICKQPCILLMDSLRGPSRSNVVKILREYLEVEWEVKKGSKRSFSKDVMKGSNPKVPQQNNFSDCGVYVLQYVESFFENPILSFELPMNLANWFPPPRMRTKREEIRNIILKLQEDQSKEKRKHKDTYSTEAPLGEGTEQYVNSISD
The class given is functional.

Experiment [4] deals with T4, Sentrin-specific protease 8 (Homo sapiens, UniProt Q96LD8).
T4 sequence (Q96LD8 whole entry): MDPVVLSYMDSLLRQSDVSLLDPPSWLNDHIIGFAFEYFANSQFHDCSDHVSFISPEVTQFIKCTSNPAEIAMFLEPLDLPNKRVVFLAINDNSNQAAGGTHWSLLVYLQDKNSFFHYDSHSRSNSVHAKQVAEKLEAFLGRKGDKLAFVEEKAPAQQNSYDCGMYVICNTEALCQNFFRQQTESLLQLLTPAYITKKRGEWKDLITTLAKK
The class given is functional.

Experiment [5] addresses G-protein coupled receptor 35 (Homo sapiens, UniProt Q9HC97). Kind of experiment: GPR35 antagonists blocking zaprinast-driven arrestin recruitment, primary screen, imaging, U2OS, beta-arrestin-GFP, zaprinast agonist (AID 2058).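 Further: antagonist potency meaning inhibition of agonist-induced arrestin redistribution.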 The class given is functional. A general note: Activated receptors often draw arrestin, which recruitment assays turn into a signal.
The next experiment has as its target Fatty acid synthase (Homo sapiens, UniProt P49327). The experiment in a line: FAS thioesterase domain inhibitors, dose response, biochemical, kinetic fluorescence intensity (AID 624326).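 Further: rate of fluorescence rise from hydrolysis of a fluorogenic O-methyl fluorescein ester substrate.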 The class given is functional.

Sequence of Fatty acid synthase (P49327 whole entry, the tested form may be a part): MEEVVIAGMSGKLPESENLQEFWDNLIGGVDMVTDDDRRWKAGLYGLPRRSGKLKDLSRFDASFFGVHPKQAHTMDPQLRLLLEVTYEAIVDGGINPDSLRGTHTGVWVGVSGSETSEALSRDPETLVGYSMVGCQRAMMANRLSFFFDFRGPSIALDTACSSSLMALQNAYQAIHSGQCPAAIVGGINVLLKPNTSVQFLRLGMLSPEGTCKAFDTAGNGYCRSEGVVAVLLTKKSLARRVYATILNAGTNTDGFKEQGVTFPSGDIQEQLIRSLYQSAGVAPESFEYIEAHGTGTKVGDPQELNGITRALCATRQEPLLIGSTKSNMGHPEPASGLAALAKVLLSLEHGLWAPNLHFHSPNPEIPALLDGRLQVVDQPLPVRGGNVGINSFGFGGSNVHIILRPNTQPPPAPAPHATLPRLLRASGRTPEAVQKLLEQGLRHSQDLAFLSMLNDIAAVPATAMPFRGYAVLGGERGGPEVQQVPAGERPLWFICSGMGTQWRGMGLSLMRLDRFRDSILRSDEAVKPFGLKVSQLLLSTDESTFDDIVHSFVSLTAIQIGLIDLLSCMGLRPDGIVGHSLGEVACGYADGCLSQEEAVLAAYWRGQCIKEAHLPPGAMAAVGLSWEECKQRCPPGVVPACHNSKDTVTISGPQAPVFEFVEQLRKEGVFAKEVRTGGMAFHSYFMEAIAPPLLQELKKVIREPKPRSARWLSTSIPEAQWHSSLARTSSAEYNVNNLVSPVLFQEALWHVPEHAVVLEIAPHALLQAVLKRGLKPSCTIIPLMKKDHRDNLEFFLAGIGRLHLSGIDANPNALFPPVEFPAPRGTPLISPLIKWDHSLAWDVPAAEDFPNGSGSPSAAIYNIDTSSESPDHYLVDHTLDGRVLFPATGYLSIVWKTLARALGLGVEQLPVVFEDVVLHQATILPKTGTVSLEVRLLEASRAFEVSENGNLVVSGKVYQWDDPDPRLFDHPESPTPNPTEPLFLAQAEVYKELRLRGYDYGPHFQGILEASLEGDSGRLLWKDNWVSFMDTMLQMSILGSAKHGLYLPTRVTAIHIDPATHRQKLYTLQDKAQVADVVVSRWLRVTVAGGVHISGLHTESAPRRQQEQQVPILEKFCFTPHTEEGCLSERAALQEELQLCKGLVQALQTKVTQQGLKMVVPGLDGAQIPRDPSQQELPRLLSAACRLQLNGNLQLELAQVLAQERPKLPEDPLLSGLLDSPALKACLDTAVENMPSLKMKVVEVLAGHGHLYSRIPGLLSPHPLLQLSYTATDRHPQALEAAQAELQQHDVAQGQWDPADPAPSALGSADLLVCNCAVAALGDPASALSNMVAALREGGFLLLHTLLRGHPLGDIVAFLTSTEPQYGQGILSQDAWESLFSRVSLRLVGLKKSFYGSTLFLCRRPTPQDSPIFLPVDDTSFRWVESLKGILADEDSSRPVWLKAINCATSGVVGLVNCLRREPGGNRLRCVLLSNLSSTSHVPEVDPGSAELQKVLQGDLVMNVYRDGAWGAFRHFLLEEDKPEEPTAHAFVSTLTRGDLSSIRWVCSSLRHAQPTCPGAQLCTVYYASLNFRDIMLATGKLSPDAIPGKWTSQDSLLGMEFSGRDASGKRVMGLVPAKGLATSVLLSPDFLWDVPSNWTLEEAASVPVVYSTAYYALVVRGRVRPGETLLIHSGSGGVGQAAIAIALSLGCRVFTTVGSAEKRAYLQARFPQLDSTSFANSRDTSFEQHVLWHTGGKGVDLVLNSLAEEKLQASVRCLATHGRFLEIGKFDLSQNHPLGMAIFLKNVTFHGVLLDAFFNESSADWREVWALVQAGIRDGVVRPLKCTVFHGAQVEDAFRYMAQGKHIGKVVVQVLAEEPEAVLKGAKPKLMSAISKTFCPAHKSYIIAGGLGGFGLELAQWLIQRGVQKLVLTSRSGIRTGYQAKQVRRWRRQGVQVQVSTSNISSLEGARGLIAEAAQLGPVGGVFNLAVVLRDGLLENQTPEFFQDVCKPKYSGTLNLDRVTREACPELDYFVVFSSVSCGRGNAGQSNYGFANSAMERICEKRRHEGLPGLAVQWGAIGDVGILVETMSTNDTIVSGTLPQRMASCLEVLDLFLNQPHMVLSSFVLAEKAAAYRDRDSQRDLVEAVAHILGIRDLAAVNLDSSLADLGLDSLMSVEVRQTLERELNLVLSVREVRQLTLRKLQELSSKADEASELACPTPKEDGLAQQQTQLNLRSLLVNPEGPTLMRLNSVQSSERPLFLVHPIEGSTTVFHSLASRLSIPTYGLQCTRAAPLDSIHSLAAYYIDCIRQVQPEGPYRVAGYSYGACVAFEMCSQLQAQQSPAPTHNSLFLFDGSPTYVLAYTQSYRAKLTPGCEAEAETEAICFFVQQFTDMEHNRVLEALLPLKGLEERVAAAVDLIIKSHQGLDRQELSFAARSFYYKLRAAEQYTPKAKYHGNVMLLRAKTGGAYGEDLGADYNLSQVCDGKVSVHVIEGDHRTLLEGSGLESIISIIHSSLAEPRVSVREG
Sequence of G-protein coupled receptor 35 (Q9HC97 whole entry, the tested form may be a part): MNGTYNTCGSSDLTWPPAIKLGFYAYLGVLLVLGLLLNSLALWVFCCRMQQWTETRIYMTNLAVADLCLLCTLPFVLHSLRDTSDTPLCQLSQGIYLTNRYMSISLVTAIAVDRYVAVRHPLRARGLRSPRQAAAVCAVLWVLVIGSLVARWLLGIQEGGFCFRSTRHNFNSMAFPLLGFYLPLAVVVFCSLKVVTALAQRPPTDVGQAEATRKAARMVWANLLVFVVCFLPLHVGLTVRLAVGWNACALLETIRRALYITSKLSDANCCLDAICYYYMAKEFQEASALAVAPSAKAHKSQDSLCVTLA

For `CCCC[n+]1ccn(C2=C([N-]S(=O)(=O)c3ccc(Cl)cc3)C(=O)c3ccccc3C2=O)c1`, in experiment [1], the EC50 was 85.9 µM (inconclusive). The IC50 is 22 µM (active) in experiment [2], 12.4 µM (active) in experiment [3] and 38.2 µM (active) in experiment [4].

For the compound `CC(=O)c1cccc2c1N=C(c1[nH]c3ccccc3c1O)C2=O`, the results for the concentration for half-maximal inhibition (IC50) in experiment [2], in experiment [3] and in experiment [4] were 15.7 µM (active), 13.2 µM (active) and 12.3 µM (active), respectively.

Regarding `CCC1CCCCN1S(=O)(=O)c1ccc(NC(=O)c2nc(S(C)(=O)=O)ncc2Cl)cc1` (centres undefined), the IC50 in experiment [5] is 3.23 µM (active); on Fatty acid synthase it was 4.03 µM (active).
